Laboratory results published in ChEMBL document CHEMBL1201862, “PubChem BioAssay data set” (2004).
Calls of active or inactive are those of the source.

How the values were obtained:
Protein skinhead-1 = target: T1, Protein skinhead-1 (Caenorhabditis elegans, UniProt P34707); format: functional
T1 sequence (P34707 whole entry): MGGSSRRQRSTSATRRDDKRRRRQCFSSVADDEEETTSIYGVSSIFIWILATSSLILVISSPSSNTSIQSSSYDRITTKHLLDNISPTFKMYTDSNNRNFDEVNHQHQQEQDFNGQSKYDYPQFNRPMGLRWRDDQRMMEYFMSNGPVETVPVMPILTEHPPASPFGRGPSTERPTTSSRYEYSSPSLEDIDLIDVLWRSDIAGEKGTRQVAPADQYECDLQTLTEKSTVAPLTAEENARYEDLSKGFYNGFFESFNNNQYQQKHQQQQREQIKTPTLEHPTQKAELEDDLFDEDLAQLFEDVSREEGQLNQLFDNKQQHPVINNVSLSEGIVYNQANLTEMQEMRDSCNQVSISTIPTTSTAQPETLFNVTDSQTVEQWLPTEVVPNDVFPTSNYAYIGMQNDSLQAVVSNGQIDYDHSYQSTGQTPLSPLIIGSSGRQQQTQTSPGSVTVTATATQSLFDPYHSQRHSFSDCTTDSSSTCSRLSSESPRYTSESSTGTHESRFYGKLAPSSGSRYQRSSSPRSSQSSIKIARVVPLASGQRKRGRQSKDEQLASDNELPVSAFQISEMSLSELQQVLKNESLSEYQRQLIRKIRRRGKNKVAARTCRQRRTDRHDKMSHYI

[1] = test system: Streptococcus sp. 'group A'; experiment: growth inhibition of control SK(-) GAS strain, dose response, counter-screen for streptokinase expression inhibitor project, luminescence, kanamycin, BacTiterGlo, confirmation (AID 1900); format: functional, organism-based
[2] = Luminescence Cell-Based Dose Retest to Confirm Inhibitors of Cancer Stem Cells. [Related pubchem assays (depositor defined):AID2717, AID2721]; format: functional; conditions: Homo sapiens
INS1 = experiment: beta cell apoptosis inhibitors, cytokine rescue, dose response, luminescence, retest (AID 449756); format: functional, cell-based; conditions: Rattus norvegicus;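 further: cell death triggered by IL-1 beta plus TNF-alpha plus IFN-gamma mixture; protective hits raise ATP signal compared with cytokine alone wells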
Streptococcus = experiment: Group A Streptococcus viability loss, dose response, counter-screen for streptokinase expression inhibitor project, luminescence, BacTiterGlo (AID 1915); format: functional, organism-based;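 further: potency for reduction of bacterial viability or growth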
Streptokinase A = target: T2, Streptokinase A (Streptococcus pyogenes serotype M1, UniProt P10520); experiment: S. pyogenes streptokinase expression inhibitors, potency, dose response, plasminogen activation absorbance, OD405 (AID 1914); format: functional, Streptococcus pyogenes M1 GAS;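 further: secreted streptokinase activity via plasminogen activation per viability signal from cell pellet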
T2 sequence (P10520 whole entry): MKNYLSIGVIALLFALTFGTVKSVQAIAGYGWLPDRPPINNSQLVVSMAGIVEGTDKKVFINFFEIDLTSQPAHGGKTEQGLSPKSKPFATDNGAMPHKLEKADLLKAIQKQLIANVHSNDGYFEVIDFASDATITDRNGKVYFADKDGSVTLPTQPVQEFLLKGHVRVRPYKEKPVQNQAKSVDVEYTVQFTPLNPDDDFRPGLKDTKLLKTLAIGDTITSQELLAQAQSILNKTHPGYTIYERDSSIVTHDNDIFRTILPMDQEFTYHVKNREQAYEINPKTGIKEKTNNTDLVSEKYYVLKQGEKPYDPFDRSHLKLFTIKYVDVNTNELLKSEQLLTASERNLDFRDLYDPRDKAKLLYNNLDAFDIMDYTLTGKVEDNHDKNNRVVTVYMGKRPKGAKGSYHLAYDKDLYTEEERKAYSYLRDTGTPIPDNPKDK

Cytochrome P450 2D6 = Cytochrome P450 2D6 (Homo sapiens, UniProt P10635);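 further: CYP2D6 member of a cytochrome P450 panel assay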
Chain of Cytochrome P450 2D6 (P10635 whole entry): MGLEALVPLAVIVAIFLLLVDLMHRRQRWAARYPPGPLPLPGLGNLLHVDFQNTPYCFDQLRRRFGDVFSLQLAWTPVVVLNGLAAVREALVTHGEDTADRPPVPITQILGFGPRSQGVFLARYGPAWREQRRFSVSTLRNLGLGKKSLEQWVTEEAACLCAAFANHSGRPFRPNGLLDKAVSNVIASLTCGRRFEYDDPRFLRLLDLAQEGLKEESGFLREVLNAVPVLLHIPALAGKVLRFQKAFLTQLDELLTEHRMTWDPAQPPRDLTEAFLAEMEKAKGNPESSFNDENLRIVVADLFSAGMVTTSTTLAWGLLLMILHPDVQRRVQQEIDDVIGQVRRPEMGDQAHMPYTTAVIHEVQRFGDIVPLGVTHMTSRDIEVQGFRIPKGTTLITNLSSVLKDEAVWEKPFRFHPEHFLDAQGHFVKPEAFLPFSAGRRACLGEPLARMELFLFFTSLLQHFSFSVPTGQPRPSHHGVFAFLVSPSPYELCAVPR

Cytochrome P450 2C19 = Cytochrome P450 2C19 (Homo sapiens, UniProt P33261); experiment: Cytochrome panel assay with activity outcomes. Panel member name: p450-cyp2c19 Compounds with AC50 equal or less than 10 uM are considered active; format: functional
Chain of Cytochrome P450 2C19 (P33261 whole entry): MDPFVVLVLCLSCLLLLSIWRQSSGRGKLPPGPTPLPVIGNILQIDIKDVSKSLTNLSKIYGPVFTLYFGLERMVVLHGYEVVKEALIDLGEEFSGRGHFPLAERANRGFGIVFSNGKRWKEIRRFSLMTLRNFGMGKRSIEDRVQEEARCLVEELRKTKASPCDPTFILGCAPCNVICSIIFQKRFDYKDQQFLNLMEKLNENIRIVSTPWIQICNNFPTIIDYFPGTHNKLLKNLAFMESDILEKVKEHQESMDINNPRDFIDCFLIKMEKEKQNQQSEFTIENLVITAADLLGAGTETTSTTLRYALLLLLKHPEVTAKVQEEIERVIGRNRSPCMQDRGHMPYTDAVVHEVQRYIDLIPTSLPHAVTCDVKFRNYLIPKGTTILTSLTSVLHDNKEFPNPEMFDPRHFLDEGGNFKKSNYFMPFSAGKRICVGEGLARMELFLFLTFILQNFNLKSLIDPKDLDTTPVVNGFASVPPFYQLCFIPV

Protein RecA = target: T3, Protein RecA (Mycobacterium tuberculosis, UniProt P9WHJ3); experiment: Fluorescence Cell-Free Homogeneous Dose Retest to Identify Inhibitors of RecA-Intein Splicing Activity. [Related pubchem assays (depositor defined):AID2097, AID2223, AID489010, AID492950]; format: functional
T3 sequence (P9WHJ3 whole entry): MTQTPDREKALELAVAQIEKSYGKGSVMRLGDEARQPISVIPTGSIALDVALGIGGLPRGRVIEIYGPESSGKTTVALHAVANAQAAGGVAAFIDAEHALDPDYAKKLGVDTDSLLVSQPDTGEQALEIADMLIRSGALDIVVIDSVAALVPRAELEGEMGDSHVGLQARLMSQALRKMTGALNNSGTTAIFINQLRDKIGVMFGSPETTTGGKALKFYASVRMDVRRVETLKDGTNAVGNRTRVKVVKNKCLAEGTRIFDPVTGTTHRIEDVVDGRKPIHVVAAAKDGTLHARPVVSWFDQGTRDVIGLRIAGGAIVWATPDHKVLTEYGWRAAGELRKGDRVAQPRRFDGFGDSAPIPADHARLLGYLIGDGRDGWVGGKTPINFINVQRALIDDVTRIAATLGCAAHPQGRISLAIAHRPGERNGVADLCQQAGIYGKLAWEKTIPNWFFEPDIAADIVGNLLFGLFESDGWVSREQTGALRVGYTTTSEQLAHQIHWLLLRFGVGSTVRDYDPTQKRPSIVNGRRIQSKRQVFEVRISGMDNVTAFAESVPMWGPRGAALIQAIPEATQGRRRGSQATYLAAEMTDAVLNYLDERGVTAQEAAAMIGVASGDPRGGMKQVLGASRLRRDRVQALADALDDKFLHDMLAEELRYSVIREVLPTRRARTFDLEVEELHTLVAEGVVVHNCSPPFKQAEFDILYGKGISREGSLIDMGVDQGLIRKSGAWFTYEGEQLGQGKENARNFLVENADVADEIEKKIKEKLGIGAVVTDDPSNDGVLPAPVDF

[3] = target: T4, Replicative DNA helicase DnaB (Mycobacterium tuberculosis, UniProt P9WMR3); experiment: DnaB intein splicing inhibitors, dose response, biochemical, cell-free fluorescence (AID 449749); format: functional
T4 sequence (P9WMR3 whole entry): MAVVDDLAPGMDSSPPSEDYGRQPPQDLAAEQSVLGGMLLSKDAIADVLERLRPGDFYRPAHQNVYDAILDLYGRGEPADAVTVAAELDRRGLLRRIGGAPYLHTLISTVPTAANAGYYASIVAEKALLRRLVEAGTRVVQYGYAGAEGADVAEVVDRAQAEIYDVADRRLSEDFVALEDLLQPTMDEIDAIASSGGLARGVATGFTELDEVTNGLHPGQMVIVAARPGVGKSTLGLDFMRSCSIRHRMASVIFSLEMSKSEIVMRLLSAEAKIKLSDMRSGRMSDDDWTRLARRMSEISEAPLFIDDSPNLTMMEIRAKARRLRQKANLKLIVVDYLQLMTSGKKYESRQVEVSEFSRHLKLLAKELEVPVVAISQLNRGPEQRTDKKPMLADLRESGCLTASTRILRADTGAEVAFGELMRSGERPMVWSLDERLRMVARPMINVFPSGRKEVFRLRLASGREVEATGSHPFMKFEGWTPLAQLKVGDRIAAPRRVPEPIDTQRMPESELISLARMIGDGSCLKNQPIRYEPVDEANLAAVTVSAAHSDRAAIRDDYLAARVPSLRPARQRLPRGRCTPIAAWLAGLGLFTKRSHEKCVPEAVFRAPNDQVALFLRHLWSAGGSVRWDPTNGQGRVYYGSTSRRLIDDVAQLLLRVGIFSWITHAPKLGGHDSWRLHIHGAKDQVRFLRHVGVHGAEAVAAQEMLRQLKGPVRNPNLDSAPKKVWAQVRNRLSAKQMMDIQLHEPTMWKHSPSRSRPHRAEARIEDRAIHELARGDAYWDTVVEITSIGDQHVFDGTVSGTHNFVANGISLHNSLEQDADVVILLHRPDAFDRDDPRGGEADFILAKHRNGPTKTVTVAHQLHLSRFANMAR

[4] = inhibitors of intracellular T. cruzi replication, confirmation, NIH3T3 host cells, beta-gal luminescence (AID 2044); format: functional, cell-based;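 further: intracellular parasites grown in NIH/3T3 mouse fibroblasts as host cells; luminescent beta-galactosidase reporter signal from transgenic T. cruzi replicating inside host cells; inhibitors lower the luminescence signal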
[5] = cytotoxicity toward NIH3T3 fibroblasts, dose response, counter-screen, cell-based, ATP luminescence, mouse fibroblasts (AID 2010); format: functional;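 further: cells exposed to compound for about 90 hours before reading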

O=C(NC(c1ccc(-c2ccccc2)cc1)c1cnccn1)C1CCN(CCOc2ccc(Cl)cc2Cl)CC1 (stereo not drawn)
IC50 (Protein skinhead-1): > 100 µM (inactive)

O=C(Nc1ccc(Br)c(C(F)(F)F)c1)c1ccc(C(F)(F)F)cc1
EC50 [1]: 1.74 µM (active) | AC50 [2]: 2.06 µM (active) | AC50 (INS1): 8.01 µM (active) | EC50 (Streptococcus): 3.98 µM (active) | EC50 (Streptokinase A): > 150 µM (not active)

CNc1nc(-c2ccoc2)nc2ccccc12
AC50 (Cytochrome P450 2D6): 39.8 µM (inconclusive)

c1ccc2oc(SCc3nc4ccccc4s3)nc2c1
IC50 (Protein skinhead-1): 37.5 µM (active)

CSc1cccc(NC(=O)C2C3C=CC4(O3)C2C(=O)N(CCN2CCOCC2)C4C(=O)NC2CCCCC2)c1 (stereo not drawn)
IC50 (Protein skinhead-1): > 100 µM (inactive)

COc1ccc(C(C)C)cc1S(=O)(=O)n1cnc(C)c1
IC50 (Protein skinhead-1): > 100 µM (inactive)

NC(=S)Nc1ccc(Oc2ccc(NC(N)=S)cc2)cc1
AC50 (Cytochrome P450 2D6): 14.1 µM (inconclusive) | AC50 (Cytochrome P450 2C19; read-out: AC50): 25.1 µM (inconclusive)

O=C(Nc1ccc(Cl)c(Cl)c1)Nc1ccon1
EC50 [1]: 44.4 µM (active) | IC50 (Protein skinhead-1): > 100 µM (inactive) | EC50 (Streptococcus): 38.7 µM (active) | EC50 (Streptokinase A): > 150 µM (not active)

Cn1c2c(c(=O)n(C)c1=O)[C@@]1(C(=O)Nc3ccccc31)C(C#N)=C(N)O2
EC50 (Protein RecA): 17.5 µM (active) | AC50 [3]: 34.1 µM (inconclusive)

CCN(C(=O)COC(=O)c1cc(-c2cccc3ccccc23)nc2ccccc12)C1CCS(=O)(=O)C1 (stereo not drawn)
IC50 (Protein skinhead-1): > 100 µM (inactive)

N#CC1=C(N)Oc2[nH]nc(-c3ccccc3)c2C1c1ccncc1 (stereo not drawn)
EC50 (Protein RecA): 3.12 µM (active) | AC50 [3]: 12.3 µM (active)

CC(C(=O)O)N1C(=O)CSc2ncccc21 (stereo not drawn)
AC50 [2]: > 195 µM (inactive)

C/C(=N\NC(N)=S)c1cc(-c2ccccc2)c(-c2ccccc2)s1
AC50 [2]: 3.27 µM (active)

O=C(Nc1nc(-c2ccc(Cl)s2)cs1)c1ccccc1
IC50 (Protein skinhead-1): 68.3 µM (inactive)

CCNc1ncc2nc(-c3ccccc3)c(=O)n(C3CC3)c2n1
AC50 (Cytochrome P450 2D6): 1.26 µM (inconclusive)

Cc1ccc(N2CCN(S(=O)(=O)c3ccc4oc(=O)ccc4c3)CC2)c(C)c1
IC50 (Protein skinhead-1): > 100 µM (inactive)

C[C@@]12CC[C@H]3[C@H](CC=C4C[C@@H](O)CC[C@@]43C)[C@@H]1CC[C@@H]2N(CCO)CCO
AC50 (Cytochrome P450 2D6): 3.98 µM (inconclusive) | AC50 (Cytochrome P450 2C19): inconclusive

c1csc(-c2nc(-c3ccncc3)no2)c1
IC50 (Protein skinhead-1): 22.2 µM (active)

O=C(CN=C(S)N(Cc1ccccc1)Cc1ccccc1F)NCCc1ccc(Cl)cc1
EC50 [4]: 1.92 µM (active) | AC50 [2]: 5.59 µM (active) | EC50 [5]: > 60 µM (not active)

CC(C)C1COC(c2cccc3ccccc23)=N1 (stereo not drawn)
IC50 (Protein skinhead-1): 25 µM (active)

O=C(CCl)c1ccc(Cc2ncc(C(F)(F)F)cc2Cl)s1
EC50 [1]: 4.31 µM (active) | EC50 (Protein RecA): 1.69 µM (active) | AC50 [3]: 3.57 µM (active) | EC50 (Streptococcus): 6.13 µM (active) | EC50 (Streptokinase A): 3.38 µM (active)

C=CCN1C(=O)NC(c2ccc(OC)cc2)(C(F)(F)F)S/C1=C(\C#N)c1nnc(N2CCOCC2)n1-c1ccccc1 (stereo not drawn)
EC50 (Protein RecA): 9.73 µM (active) | AC50 [3]: 6.76 µM (active)

CCC(C)c1ccc(NC(=O)C2CC3CCC2C3)cc1 (stereo not drawn)
AC50 [2]: 4.53 µM (active)

Cc1cc(Nc2ccccc2)c2c([N+](=O)[O-])ccc(C)c2n1
EC50 (Protein RecA): 0.551 µM (active) | EC50 [4]: 1.41 µM (active) | AC50 [3]: > 380 µM (inactive) | EC50 [5]: > 30 µM (not active)

Brc1ccc(-c2nnc(-c3ccccc3Br)o2)cc1
IC50 (Protein skinhead-1): > 100 µM (inactive)

CCOC(=O)c1cccc(C2=CC(=O)C[C@H](c3ccc(Cl)cc3)C2)c1
AC50 [2]: 0.885 µM (active)

CCCC1(C(=O)OCC)NC(c2ccc(N(C)C)cc2)C2C(=O)N(c3ccccc3)C(=O)C21 (stereo not drawn)
IC50 (Protein skinhead-1): > 100 µM (inactive)

CN(C(=O)C1Cc2c(-c3ccccc3Oc3ccccc3)ccnc2O1)c1ccccc1 (stereo not drawn)
IC50 (Protein skinhead-1): > 100 µM (inactive)

CCOc1ccc2nc(O)c(CN(CCc3ccccc3)C(=O)N3CCCC3)cc2c1
AC50 (Cytochrome P450 2D6): 22.4 µM (inconclusive)

CC1CCN(S(=O)(=O)c2ccc(C(=O)N3CCOCC3)cc2)CC1
IC50 (Protein skinhead-1): > 100 µM (inactive)

COc1ccc(-c2nn(-c3ccccc3)cc2C(=O)N(C)CC(=O)Nc2cccc(F)c2)cc1
AC50 [2]: 12.9 µM (active)

CC(C)(C)[C@@H]1CCC(=O)N(CC[C@H](Sc2ccc(Br)cc2)c2ccccc2)CC1
AC50 [2]: 3.18 µM (active)
